Test system: MRP-1 mRNA
Experiment: MRP-1 mRNA content in duodenal biopsies from healthy volunteers before and after application of rifampicin
Type: in vivo, human
Conditions: before (A) vs after (B) application of rifampicin, paired T-test p<0.001
Excerpt: FIG. 3: Diagram 1A and 1B represent the correlation of the genotype (wt/wt: 1; wt/mut and mut/mut:2) with MRP-1 mRNA content in duodenal biopsies from healthy volunteers derived from two independent experiments, before (A) and after (B) application of rifampicin. The p-value of the statistical evaluation (Kruskal-Wallis-Test), which result in a genotyp/phenotype correlation is p=0.086. […] Thus, the differences in the MRP-1 mRNA content are based on interindividual differences. The statistical analyses were performed using the computer program SPSS 10.0 (SPSS, Chicago, USA).
Functional polymorphisms in the MRP-1 gene (see tables in examples 2 and 4) affect the transport activity and subsequently the levels of drugs which are substrates of MRP-1. […] Three different patient collectives, two show side effects during drug therapy and one for which the MRP-1 mRNA levels had been defined, were analyzed to determine whether MRP-1 polymorphisms correlate with transporter activity and subsequently with alterations in drug activities and side effects. […] For this purpose, the 3 collectives (collective 1: samples with nephrotoxicities after cisplatin therapy; collective 2: liver and kidney side effects; collective 3: samples with defined high or low MRP-1 mRNA levels) were screened for all MRP-1 gene fragments, in which the new SNP's could be detected. […]

CO[C@H]1/C=C/O[C@@]2(C)Oc3c(C)c(O)c4c(O)c(c(/C=N/N5CCN(C)CC5)c(O)c4c3C2=O)NC(=O)/C(C)=C\C=C\[C@H](C)[C@H](O)[C@@H](C)[C@@H](O)[C@@H](C)[C@H](OC(C)=O)[C@@H]1C [rifampicin]
effect on MRP-1 mRNA expression: no effect

From US20120190017A1, “POLYMORPHISMS IN THE HUMAN GENE FOR THE MULTIDRUG RESISTANCE-ASSOCIATED PROTEIN 1 (MRP-1) AND THEIR USE IN DIAGNOSTIC AND THERAPEUTIC APPLICATIONS” (priority 2001, published 2012)
